Literature values in patent US6245768A, “1-(N'-(arylalkylaminoalkyl)) aminoisoindoles; a new class of dopamine receptor subtype specific ligands” (Neurogen Corporation, priority 1999, dated 2001).
Read-outs that look alike come from different tables or passages of the source.

Assays:
[1] = system: D1 dopamine receptor; conditions: related art
[2] = system: D2 receptors; conditions: related art

**Q.** With CCN1CCCC1CNC(=O)c1cc(S(N)(=O)=O)ccc1OC (stereo not shown) [sulpiride] as the compound, how does the “incidence of extrapyramidal side effects (EPS)” value (in vivo) read?
**A.** lesser incidence of extrapyramidal side effects (EPS) than classical neuroleptics

**Q.** With CN1CCN(C2=Nc3cc(Cl)ccc3Nc3ccccc32)CC1 [clozapine] as the compound, how does the “incidence of extrapyramidal side effects (EPS)” value (compared with classical neuroleptics, related art) read?
**A.** lesser incidence of extrapyramidal side effects (EPS) than classical neuroleptics

**Q.** What does the source list for O=C(CCCN1CCC(O)(c2ccc(Cl)cc2)CC1)c1ccc(F)cc1 [haloperidol]?
**A.** binding at the D1 dopamine receptor [1]: binds relatively weakly; binding affinity at D2 receptors [2]: subnanomolar range
